According to ChEMBL document CHEMBL1201861, “Genomics of Drug Sensitity in Cancer screening data, Wellcome Trust Sanger Institute”:

How the values were obtained:
Format in all cases: functional, cell-based
PA-1 = experiment: cells; conditions: Homo sapiens;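 also: IC50 for suppression of PA-1 cell proliferation, determined with a cell viability read-out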
Description: SANGER: Inhibition of human PA-1 cell growth in a cell viability assay.

WM-115 = experiment: cells; conditions: Homo sapiens
Description: SANGER: Inhibition of human WM-115 cell growth in a cell viability assay.

CP50-MEL-B = experiment: cells; conditions: Homo sapiens;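 also: growth inhibition of the human cell line, measured with a cell viability read-out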
Description: SANGER: Inhibition of human CP50-MEL-B cell growth in a cell viability assay.

ECC4 = experiment: cells; conditions: Homo sapiens;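 also: growth inhibition of ECC4 cells, read out with a cell viability assay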
Description: SANGER: Inhibition of human ECC4 cell growth in a cell viability assay.

ME-180 = experiment: cells; conditions: Homo sapiens;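 also: cell viability assay measuring growth inhibition of ME-180 cells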
Description: SANGER: Inhibition of human ME-180 cell growth in a cell viability assay.

BC-3 = experiment: cells; conditions: Homo sapiens;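 also: cell viability assay measuring growth inhibition of human BC-3 cells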
Description: SANGER: Inhibition of human BC-3 cell growth in a cell viability assay.

DU-145 = experiment: cells; conditions: Homo sapiens
Description: SANGER: Inhibition of human DU-145 cell growth in a cell viability assay.

SIMA = experiment: cells; conditions: Homo sapiens;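 also: growth inhibition of SIMA cells, measured with a cell viability readout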
Description: SANGER: Inhibition of human SIMA cell growth in a cell viability assay.

NCI-H1993 = experiment: cells; conditions: Homo sapiens;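 also: growth inhibition of the cancer cell line, assessed with a cell viability assay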
Description: SANGER: Inhibition of human NCI-H1993 cell growth in a cell viability assay.

NCI-H345 = experiment: cells; conditions: Homo sapiens;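 also: growth inhibition of NCI-H345 cells measured with a cell viability assay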
Description: SANGER: Inhibition of human NCI-H345 cell growth in a cell viability assay.

SW1710 = experiment: cells; conditions: Homo sapiens;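 also: growth inhibition of SW1710 cells, determined with a cell viability assay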
Description: SANGER: Inhibition of human SW1710 cell growth in a cell viability assay.

EVSA-T = experiment: cells; conditions: Homo sapiens;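 also: growth inhibition of EVSA-T cells, read out with a cell viability assay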
Description: SANGER: Inhibition of human EVSA-T cell growth in a cell viability assay.

CHL-1 = experiment: cells; conditions: Homo sapiens;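 also: cell growth inhibition, read out with a cell viability assay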
Description: SANGER: Inhibition of human CHL-1 cell growth in a cell viability assay.

HCC70 = experiment: cells; conditions: Homo sapiens;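 also: cell viability assay measuring how strongly the compound suppresses proliferation of HCC70 cells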
Description: SANGER: Inhibition of human HCC70 cell growth in a cell viability assay.

HT55 = experiment: cells; conditions: Homo sapiens;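 also: cell viability readout measuring growth inhibition of human HT55 cells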
Description: SANGER: Inhibition of human HT55 cell growth in a cell viability assay.

VMRC-RCZ = experiment: cells; conditions: Homo sapiens
Description: SANGER: Inhibition of human VMRC-RCZ cell growth in a cell viability assay.

NCI-H2342 = experiment: cells; conditions: Homo sapiens;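 also: growth inhibition of the cancer cell line, determined with a cell viability assay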
Description: SANGER: Inhibition of human NCI-H2342 cell growth in a cell viability assay.

NCI-H661 = experiment: cells; conditions: Homo sapiens;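 also: cell viability assay read-out, IC50 being the concentration that inhibits growth of the cells by half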
Description: SANGER: Inhibition of human NCI-H661 cell growth in a cell viability assay.

NY = experiment: cells; conditions: Homo sapiens
Description: SANGER: Inhibition of human NY cell growth in a cell viability assay.

T98G = experiment: cells; conditions: Homo sapiens;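 also: growth inhibition of T98G cells, read out by a cell viability assay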
Description: SANGER: Inhibition of human T98G cell growth in a cell viability assay.

NCI-H2171 = experiment: cells; conditions: Homo sapiens;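 also: growth inhibition of human NCI-H2171 cells, read out by a cell viability assay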
Description: SANGER: Inhibition of human NCI-H2171 cell growth in a cell viability assay.

BOKU = experiment: cells; conditions: Homo sapiens;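 also: growth inhibition of the human BOKU cell line, read out by a cell viability assay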
Description: SANGER: Inhibition of human BOKU cell growth in a cell viability assay.

NCI-H2405 = experiment: cells; conditions: Homo sapiens;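 also: growth inhibition of the human cell line, read out with a cell viability assay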
Description: SANGER: Inhibition of human NCI-H2405 cell growth in a cell viability assay.

YKG-1 = experiment: cells; conditions: Homo sapiens;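 also: cell growth inhibition, read out with a viability assay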
Description: SANGER: Inhibition of human YKG-1 cell growth in a cell viability assay.

NCI-H524 = experiment: cells; conditions: Homo sapiens;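 also: growth inhibition of human NCI-H524 cells, read out through a cell viability assay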
Description: SANGER: Inhibition of human NCI-H524 cell growth in a cell viability assay.

NCI-N87 = experiment: cells; conditions: Homo sapiens;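 also: growth inhibition of human NCI-N87 cells, read out with a cell viability assay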
Description: SANGER: Inhibition of human NCI-N87 cell growth in a cell viability assay.

MKN-7 = experiment: cells; conditions: Homo sapiens;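 also: growth inhibition of MKN-7 cells, read out with a cell viability assay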
Description: SANGER: Inhibition of human MKN7 cell growth in a cell viability assay.

HOP-92 = experiment: cells; conditions: Homo sapiens;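 also: cell viability readout, with IC50 reflecting inhibition of HOP-92 cell growth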
Description: SANGER: Inhibition of human HOP-92 cell growth in a cell viability assay.

PF-382 = experiment: cells; conditions: Homo sapiens
Description: SANGER: Inhibition of human PF-382 cell growth in a cell viability assay.

HSC-3 = experiment: cells; conditions: Homo sapiens
Description: SANGER: Inhibition of human HSC-3 cell growth in a cell viability assay.

TE-441-T = experiment: cells; conditions: Homo sapiens
Description: SANGER: Inhibition of human TE-441-T cell growth in a cell viability assay.

IM-9 = experiment: SANGER: Inhibition of human IM-9 cell growth in a cell viability assay.
RPMI-2650 = experiment: cells; conditions: Homo sapiens
Description: SANGER: Inhibition of human RPMI-2650 cell growth in a cell viability assay.

C-33-A = experiment: cells; conditions: Homo sapiens;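 also: cell viability assay measuring growth inhibition of C-33-A cells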
Description: SANGER: Inhibition of human C-33-A cell growth in a cell viability assay.

OE19 = experiment: cells; conditions: Homo sapiens;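 also: growth inhibition of OE19 cells, measured through a cell viability read-out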
Description: SANGER: Inhibition of human OE19 cell growth in a cell viability assay.

THP-1 = experiment: cells; conditions: Homo sapiens;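 also: growth inhibition of THP-1 cells, read out via a cell viability assay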
Description: SANGER: Inhibition of human THP-1 cell growth in a cell viability assay.

CaR-1 = experiment: cells; conditions: Homo sapiens;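 also: growth inhibition of human CaR-1 cancer cells, read out with a cell viability assay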
Description: SANGER: Inhibition of human CaR-1 cell growth in a cell viability assay.

CWR22R = experiment: cells; conditions: Homo sapiens, 22Rv1;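 also: growth inhibition of 22Rv1 cells, read out with a cell viability assay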
Description: SANGER: Inhibition of human 22RV1 cell growth in a cell viability assay.

UMC-11 = experiment: cells; conditions: Homo sapiens;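 also: growth inhibition of UMC-11 cells, read out with a cell viability assay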
Description: SANGER: Inhibition of human UMC-11 cell growth in a cell viability assay.

BL-70 = experiment: SANGER: Inhibition of human BL-70 cell growth in a cell viability assay.
MDA-MB-231 = experiment: cells; conditions: Homo sapiens
Description: SANGER: Inhibition of human MDA-MB-231 cell growth in a cell viability assay.

CAL-72 = experiment: cells; conditions: Homo sapiens;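 also: cell viability assay measuring inhibition of proliferation in the CAL-72 cell line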
Description: SANGER: Inhibition of human CAL-72 cell growth in a cell viability assay.

NB12 = experiment: cells; conditions: Homo sapiens;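 also: growth inhibition of human NB12 cells, read out by a cell viability assay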
Description: SANGER: Inhibition of human NB12 cell growth in a cell viability assay.

RVH-421 = experiment: cells; conditions: Homo sapiens
Description: SANGER: Inhibition of human RVH-421 cell growth in a cell viability assay.

SK-MES-1 = experiment: cells; conditions: Homo sapiens;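 also: growth inhibition of human SK-MES-1 cells, read out with a cell viability assay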
Description: SANGER: Inhibition of human SK-MES-1 cell growth in a cell viability assay.

LC4-1 = experiment: cells; conditions: Homo sapiens;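 also: growth inhibition of LC4-1 cells, read out with a cell viability assay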
Description: SANGER: Inhibition of human LC4-1 cell growth in a cell viability assay.

SK-MEL-30 = experiment: cells; conditions: Homo sapiens;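 also: growth inhibition of SK-MEL-30 cells, determined with a cell viability assay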
Description: SANGER: Inhibition of human SK-MEL-30 cell growth in a cell viability assay.

HT-1376 = experiment: cells; conditions: Homo sapiens
Description: SANGER: Inhibition of human HT-1376 cell growth in a cell viability assay.

LC-1F = experiment: cells; conditions: Homo sapiens;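 also: growth inhibition of human LC-1F cells, read out with a cell viability assay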
Description: SANGER: Inhibition of human LC-1F cell growth in a cell viability assay.

NCI-H2009 = experiment: cells; conditions: Homo sapiens;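 also: cell viability assay measuring inhibition of NCI-H2009 cell growth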
Description: SANGER: Inhibition of human NCI-H2009 cell growth in a cell viability assay.

NCI-H28 = experiment: cells; conditions: Homo sapiens;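 also: growth inhibition of human NCI-H28 cells, read out as cell viability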
Description: SANGER: Inhibition of human NCI-H28 cell growth in a cell viability assay.

RD = experiment: cells; conditions: Homo sapiens
Description: SANGER: Inhibition of human RD cell growth in a cell viability assay.

Ca-Ski = experiment: cells; conditions: Homo sapiens;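 also: cell viability assay measuring inhibition of Ca-Ski cell growth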
Description: SANGER: Inhibition of human Ca-Ski cell growth in a cell viability assay.

PANC-08-13 = experiment: cells; conditions: Homo sapiens
Description: SANGER: Inhibition of human PANC-08-13 cell growth in a cell viability assay.

M059J = experiment: cells; conditions: Homo sapiens;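 also: growth inhibition of M059J cells, read out with a cell viability assay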
Description: SANGER: Inhibition of human M059J cell growth in a cell viability assay.

EB-3 = experiment: cells; conditions: Homo sapiens;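 also: human EB-3 cells, growth inhibition read out via a cell viability assay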
Description: SANGER: Inhibition of human EB-3 cell growth in a cell viability assay.

SIG-M5 = experiment: cells; conditions: Homo sapiens;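 also: cell viability assay read-out, measuring how strongly growth of cultured human SIG-M5 cells is inhibited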
Description: SANGER: Inhibition of human SIG-M5 cell growth in a cell viability assay.

UO-31 = experiment: cells; conditions: Homo sapiens
Description: SANGER: Inhibition of human U031 cell growth in a cell viability assay.

M14 = experiment: cells; conditions: Homo sapiens;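 also: growth inhibition of M14 cells, read out with a cell viability assay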
Description: SANGER: Inhibition of human M14 cell growth in a cell viability assay.

NCI-H1623 = experiment: cells; conditions: Homo sapiens;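 also: cell viability assay used as the read-out for growth inhibition of NCI-H1623 cells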
Description: SANGER: Inhibition of human NCI-H1623 cell growth in a cell viability assay.

DoTc2-4510 = experiment: cells; conditions: Homo sapiens
23132-87 = experiment: cells; conditions: Homo sapiens
Description: SANGER: Inhibition of human 23132-87 cell growth in a cell viability assay.

SW1990 = experiment: cells; conditions: Homo sapiens
Description: SANGER: Inhibition of human SW1990 cell growth in a cell viability assay.

HCC 2998 = experiment: cells; conditions: Homo sapiens;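 also: growth inhibition of human HCC2998 cells, measured with a cell viability read-out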
Description: SANGER: Inhibition of human HCC2998 cell growth in a cell viability assay.

In the case of `Fc1cc(-c2cc[nH]/c(=N/c3ccc(-n4cnc(N5CCOCC5)n4)cc3)n2)cc(N2CCOCC2)c1`, the IC50 (PA-1) is reported as 102 nM, the IC50 (WM-115) is reported as > 5120 nM and the IC50 (CP50-MEL-B) is reported as 722 nM. It also gave an IC50 (ECC4) of 2730 nM, an IC50 (ME-180) of 1410 nM and an IC50 (BC-3) of 598 nM. It also gave an IC50 (DU-145) of 480 nM, an IC50 (SIMA) of 782 nM and an IC50 (NCI-H1993) of 2280 nM. The IC50 (NCI-H345) was 4540 nM, the IC50 (SW1710) was 232 nM and the IC50 (EVSA-T) was 1270 nM. The IC50 (CHL-1) was 490 nM, the IC50 (HCC70) was 350 nM and the IC50 (HT55) was > 5120 nM. The IC50 (VMRC-RCZ) was 999 nM, the IC50 (NCI-H2342) was 362 nM and the IC50 (NCI-H661) was 501 nM. For the same compound, the IC50 (NY) was 623 nM, the IC50 (T98G) was 567 nM and the IC50 (NCI-H2171) was 792 nM. The IC50 (BOKU) was 3100 nM, the IC50 (NCI-H2405) was 1210 nM and the IC50 (YKG-1) was 724 nM. For the same compound, the IC50 (NCI-H524) was > 5120 nM, the IC50 (NCI-N87) was > 5120 nM and the IC50 (MKN-7) was 3140 nM. The IC50 (HOP-92) was 2410 nM, the IC50 (PF-382) was 476 nM and the IC50 (HSC-3) was 713 nM. For the same compound, the IC50 (TE-441-T) was 316 nM, the IC50 (IM-9) was 3340 nM and the IC50 (RPMI-2650) was 224 nM. For the same compound, the IC50 (C-33-A) was 253 nM, the IC50 (OE19) was 1100 nM and the IC50 (THP-1) was 1050 nM. The IC50 (CaR-1) was 1880 nM, the IC50 (CWR22R) was 1010 nM and the IC50 (UMC-11) was 179 nM. For the same compound, the IC50 (BL-70) was 252 nM, the IC50 (MDA-MB-231) was 967 nM and the IC50 (CAL-72) was > 5120 nM. It also gave an IC50 (NB12) of 383 nM, an IC50 (RVH-421) of 415 nM and an IC50 (SK-MES-1) of 153 nM. It also gave an IC50 (LC4-1) of 431 nM, an IC50 (SK-MEL-30) of 588 nM and an IC50 (HT-1376) of 1460 nM. For the same compound, the IC50 (LC-1F) was 2530 nM, the IC50 (NCI-H2009) was 508 nM and the IC50 (NCI-H28) was 340 nM. The IC50 (RD) was 1300 nM, the IC50 (Ca-Ski) was 532 nM and the IC50 (PANC-08-13) was 90 nM. For the same compound, the IC50 (M059J) was 926 nM, the IC50 (EB-3) was 1830 nM and the IC50 (SIG-M5) was 124 nM. It also gave an IC50 (UO-31) of 519 nM, an IC50 (M14) of 342 nM and an IC50 (NCI-H1623) of 1300 nM. It also gave an IC50 (DoTc2-4510) of 225 nM, an IC50 (23132-87) of 623 nM and an IC50 (SW1990) of 1100 nM. The IC50 (HCC 2998) was 2030 nM.

`O=c1[nH]c2ccccc2n1C1CCN(Cc2ccc(-c3nc4cc5[nH]cnc5cc4nc3-c3ccccc3)cc2)CC1` was tested, and the IC50 (PA-1) was > 2560 nM, the IC50 (WM-115) was > 2560 nM and the IC50 (CP50-MEL-B) was > 2560 nM. The IC50 (ECC4) was > 2560 nM, the IC50 (ME-180) was > 2560 nM and the IC50 (BC-3) was > 2560 nM. The IC50 (DU-145) was > 2560 nM, the IC50 (SIMA) was > 2560 nM and the IC50 (NCI-H1993) was > 2560 nM. The IC50 (NCI-H345) was > 2560 nM, the IC50 (SW1710) was 1390 nM and the IC50 (EVSA-T) was > 2560 nM. For the same compound, the IC50 (CHL-1) was > 2560 nM, the IC50 (HCC70) was 751 nM and the IC50 (HT55) was > 2560 nM. For the same compound, the IC50 (VMRC-RCZ) was > 2560 nM, the IC50 (NCI-H2342) was 938 nM and the IC50 (NCI-H661) was > 2560 nM. For the same compound, the IC50 (NY) was > 2560 nM, the IC50 (T98G) was > 2560 nM and the IC50 (NCI-H2171) was > 2560 nM. For the same compound, the IC50 (BOKU) was > 2560 nM, the IC50 (NCI-H2405) was > 2560 nM and the IC50 (YKG-1) was 1020 nM. The IC50 (NCI-H524) was > 2560 nM, the IC50 (NCI-N87) was > 2560 nM and the IC50 (MKN-7) was > 2560 nM. The IC50 (HOP-92) was > 2560 nM, the IC50 (PF-382) was > 2560 nM and the IC50 (HSC-3) was > 2560 nM. The IC50 (TE-441-T) was > 2560 nM, the IC50 (IM-9) was > 2560 nM and the IC50 (RPMI-2650) was > 2560 nM. For the same compound, the IC50 (C-33-A) was > 2560 nM, the IC50 (OE19) was > 2560 nM and the IC50 (THP-1) was > 2560 nM. The IC50 (CaR-1) was > 2560 nM, the IC50 (CWR22R) was > 2560 nM and the IC50 (UMC-11) was > 2560 nM. For the same compound, the IC50 (BL-70) was > 2560 nM, the IC50 (MDA-MB-231) was > 2560 nM and the IC50 (CAL-72) was > 2560 nM. The IC50 (NB12) was > 2560 nM, the IC50 (RVH-421) was > 2560 nM and the IC50 (SK-MES-1) was 2100 nM. For the same compound, the IC50 (LC4-1) was > 2560 nM, the IC50 (SK-MEL-30) was > 2560 nM and the IC50 (HT-1376) was > 2560 nM. For the same compound, the IC50 (LC-1F) was > 2560 nM, the IC50 (NCI-H2009) was > 2560 nM and the IC50 (NCI-H28) was > 2560 nM. For the same compound, the IC50 (RD) was > 2560 nM, the IC50 (Ca-Ski) was > 2560 nM and the IC50 (PANC-08-13) was > 2560 nM. The IC50 (M059J) was > 2560 nM, the IC50 (EB-3) was > 2560 nM and the IC50 (SIG-M5) was > 2560 nM. For the same compound, the IC50 (UO-31) was > 2560 nM, the IC50 (M14) was > 2560 nM and the IC50 (NCI-H1623) was > 2560 nM. For the same compound, the IC50 (DoTc2-4510) was > 2560 nM, the IC50 (23132-87) was 759 nM and the IC50 (SW1990) was > 2560 nM. The IC50 (HCC 2998) was > 2560 nM.
